Results taken from ChEMBL document CHEMBL2380268, “Characterization of the receptor binding residues of kisspeptins by positional scanning using peptide photoaffinity probes” (Bioorg Med Chem Lett, 2013).
Activity calls are given as the source filed them. The calls are words filed in the database; no cut-off is given here. Where a SMILES comes first, the peptide text is derived from it. The star is where a group is joined. X1 = [N-]=[N+]=Nc1ccc(C(=O)NCCN2C(=O)CC(*)C2=O)c(O)c1; Biotin = O=C1N[C@H]2[C@H](CS[C@H]2CCCCC(=O)*)N1

Assays:
Assay type in all cases: cell-based
[1] = target: KiSS-1 receptor (Homo sapiens) (UniProt Q969F8); test: Binding affinity to GPR54 in HEK293 cells at 500 nM incubated for 1 hr followed by UV irradiation for 30 secs by Western blot analysis
Chain of KiSS-1 receptor (Homo sapiens) (Q969F8 whole entry): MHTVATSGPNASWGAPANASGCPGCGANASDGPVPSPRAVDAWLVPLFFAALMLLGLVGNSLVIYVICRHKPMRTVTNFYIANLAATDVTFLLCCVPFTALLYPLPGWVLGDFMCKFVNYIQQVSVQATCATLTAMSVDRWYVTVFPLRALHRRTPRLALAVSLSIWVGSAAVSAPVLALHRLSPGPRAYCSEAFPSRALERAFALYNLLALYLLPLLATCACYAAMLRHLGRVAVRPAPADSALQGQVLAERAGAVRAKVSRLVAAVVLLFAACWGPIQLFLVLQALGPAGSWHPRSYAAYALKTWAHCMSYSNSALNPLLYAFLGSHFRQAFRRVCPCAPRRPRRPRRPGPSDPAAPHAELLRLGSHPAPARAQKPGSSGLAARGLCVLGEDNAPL

[2] = target: KiSS-1 receptor (Homo sapiens) (UniProt Q969F8); test: Competitive binding affinity to GPR54 in HEK293 cells at 500 nM incubated for 1 hr followed by UV irradiation for 30 secs by Western blot analysis in presence of unlabeled Kp-10
[3] = target: KiSS-1 receptor (Homo sapiens) (UniProt Q969F8); test: Binding affinity to GPR54 in HEK293 cells at 500 nM incubated for 1 hr followed by UV irradiation for 30 secs by Western blot analysis in presence of PNGase F

CC(C)C[C@H](NC(=O)CNC(=O)[C@H](Cc1ccccc1)NC(=O)[C@H](CO)NC(=O)[C@H](CC(N)=O)NC(=O)[C@H](Cc1c[nH]c2ccccc12)NC(=O)[C@H](CSC1CC(=O)N(CCNC(=O)c2ccc(N=[N+]=[N-])cc2O)C1=O)NC(=O)[C@H](Cc1ccc(O)cc1)NC(=O)[C@H](CC(N)=O)NC(=O)[C@@H]1CCCN1C(=O)[C@H](CC(C)C)NC(=O)[C@H](CC(=O)O)NC(=O)CCCC[C@@H]1SC[C@@H]2NC(=O)N[C@@H]21)C(=O)N[C@@H](CCCNC(=N)N)C(=O)N[C@@H](Cc1ccccc1)C(N)=O (some centres undefined) (Biotin-DLPNYC(X1)WNSFGLRF-NH2)
Activity [1]: inactive

CC(C)C[C@H](NC(=O)CNC(=O)[C@H](Cc1ccccc1)NC(=O)[C@H](CO)NC(=O)[C@H](CC(N)=O)NC(=O)[C@H](Cc1c[nH]c2ccccc12)NC(=O)[C@H](CC(N)=O)NC(=O)[C@H](CSC1CC(=O)N(CCNC(=O)c2ccc(N=[N+]=[N-])cc2O)C1=O)NC(=O)[C@H](CC(N)=O)NC(=O)[C@@H]1CCCN1C(=O)[C@H](CC(C)C)NC(=O)[C@H](CC(=O)O)NC(=O)CCCC[C@@H]1SC[C@@H]2NC(=O)N[C@@H]21)C(=O)N[C@@H](CCCNC(=N)N)C(=O)N[C@@H](Cc1ccccc1)C(N)=O (some centres undefined) (Biotin-DLPNC(X1)NWNSFGLRF-NH2)
Activity [1]: inactive

CC(C)C[C@H](NC(=O)CNC(=O)[C@H](Cc1ccccc1)NC(=O)[C@H](CO)NC(=O)[C@H](CC(N)=O)NC(=O)[C@H](CSC1CC(=O)N(CCNC(=O)c2ccc(N=[N+]=[N-])cc2O)C1=O)NC(=O)[C@H](CC(N)=O)NC(=O)[C@H](Cc1ccc(O)cc1)NC(=O)[C@H](CC(N)=O)NC(=O)[C@@H]1CCCN1C(=O)[C@H](CC(C)C)NC(=O)[C@H](CC(=O)O)NC(=O)CCCC[C@@H]1SC[C@@H]2NC(=O)N[C@@H]21)C(=O)N[C@@H](CCCNC(=N)N)C(=O)N[C@@H](Cc1ccccc1)C(N)=O (some centres undefined) (Biotin-DLPNYNC(X1)NSFGLRF-NH2)
Activity [2]: inactive | Activity [3]: inactive
